Results on one compound are retold here after patent US10722480B2, “Agent for controlling cells constituting cancer microenvironment or inflammatory microenvironment” (The University of Tokyo, priority 2015, dated 2020).

Data set [1] addresses T1, FROUNT-CCR2 interaction (Homo sapiens, UniProt Q9BW27).
T1 construct: made in house
T1 sequence (Q9BW27 500-656): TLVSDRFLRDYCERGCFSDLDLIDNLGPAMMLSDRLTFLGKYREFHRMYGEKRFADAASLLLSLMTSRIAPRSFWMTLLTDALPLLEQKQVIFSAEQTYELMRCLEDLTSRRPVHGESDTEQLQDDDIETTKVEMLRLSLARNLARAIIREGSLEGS
In words: HTRF binding inhibition assay, FROUNT-CCR2 interaction. As for the experimental part: For the screening, a compound library containing 131,200 kinds of compounds dissolved in DMSO at a concentration of 10 mM or 2 mM (obtained from Open Innovation Center for Drug Discovery, the University of Tokyo) was used. The HTRF assay was carried out using a 384-well low-dose white microplate (Corning Coaster; catalog number 3676). In each well, 4 μL of a solution of 20 nM GST fusion FROUNT protein (a recombinant polypeptide prepared by fusing GST to aa 500-656 of SEQ ID NO:2), and DMSO or test compounds were mixed with a binding buffer (10 mM HEPES [pH 7.4], 0.2 M potassium fluoride, 10 mM NaCl, 0.1% Tween 20, and 0.5% bovine serum albumin [BSA]), and the plate was incubated at room temperature for 30 minutes. […]. After incubation at room temperature for 20 hours, the HTRF signal was measured at emission wavelengths of 620 nm and 665 nm using a multilabel counter EnVision (PerkinElmer).
By the same HTRF assay as described above, the abilities of disulfiram to inhibit the FROUNT-CCR2 interaction or the FROUNT-CCR5 interaction were investigated. As the CCR5 pro-C peptide, the 16 residues […] (SEQ ID NO:4) in the C-terminal region of CCR5 was used. As a control, the p53-MDM2 interaction (which is inhibited by an MDM-2-specific inhibitor Nutlin), which is also a helix peptide-protein interaction like the interaction between FROUNT and CCR2 or CCR5 but is not related thereto, was used.
(In general: Time-resolved FRET reads energy transfer from a long-lived donor to a nearby acceptor.)

The subject of data set [2] is LLC tumor cells. As to the kind of experiment: LDH cytotoxicity assay, LLC tumor cells. The data set is classed as cell-based. The conditions noted are these: LDH release, 72 hours. As for the experimental part: (§1) The cytotoxicity of inhibitors was tested by using LDH Cytotoxicity Detection Kit (TaKaRa) according to the manufacturer's instructions. Briefly, tumor cells were cultured in the presence or absence of an agent (disulfiram or 5FU) for 72 hours, and the culture supernatant was then collected and tested for the concentration of lactate dehydrogenase released from damaged cells. For measurement of cell proliferation, cells were incubated in a plate well together with an inhibitor for 48 hours. During the last 30 minutes, WST-1 (Dojindo Laboratories) was added to the culture liquid, and the absorbance of each well was measured at 450 nm versus 650 nm reference using EnVision (PerkinElmer) to detect the formazan level.
On the technique in general: LDH in the medium is a marker of cell lysis.

The test system of data set [3] is B16F10 melanoma cells. As to the kind of experiment: LDH cytotoxicity assay, B16F10 melanoma cells. It counts as cell-based. The note with it: LDH release, 72 hours. As for the experimental part: as §1
Data set [4] deals with macrophages in tumor sites. As to the kind of experiment: Macrophage accumulation in tumor sites (lung metastasis model). The data set is classed as in vivo, mouse. The conditions noted are these: wild-type mice, vs solvent. As for the experimental part:
Lung cells of the lung metastasis model of wild-type mice described in the section 4 above or lung cells of the lung metastasis model of FNT-cKO mice and FNT^flox/flox mice described in the section 7(2) above were obtained from the right lower lobe by digestion with collagenase and DNase. The cells were washed with PBS supplemented with 2% fetal bovine serum, resuspended, and filtered through a 70-μm strainer. The Fc receptor was blocked by incubation with an anti-mouse CD16/32 antibody (BD biosciences), and thereafter the cells were stained with a fluorescently labeled antibody. Anti-mouse CD11b-Brilliant Violet 510, anti-mouse Ly6C-APC-Cy7, and anti-mouse Ly6G-Alexa Fluor 700 were purchased from Biolegend. The stained cells were analyzed using the Gallios flow cytometer (Beckman coulter). Each mouse was perfused with PBS, and the left lung was isolated. Optimal Cutting Temperature Compound (OCT) (Sakura Finetek) was injected from the trachea to embed the lung in OCT, and the lung was then frozen in liquid nitrogen. Fresh frozen sections with a thickness of 8 μm were prepared, and fixed with 4% paraformaldehyde-PBS. […] Fluorescence Images were obtained with an SP5 confocal microscope (Leica Microsystems).

Data set [5] relates to LLC tumor. In words: Combined use with anti-PD-1 antibody, LLC tumor-bearing model. The conditions noted are these: DSF in feed from Day 4, anti-PD-1 antibody 0.2 mg i.p. x4. It counts as in vivo, mouse. As for the experimental part: To provide an example of combined use of an anticancer drug and disulfiram (DSF), the effect of combined use of an anti-PD-1 antibody, which is an anticancer drug targeting an immune checkpoint molecule, and DSF was studied using an LLC tumor-bearing model and a B16 tumor-bearing model. The B16 tumor-bearing model was prepared by transplanting 5×10^5 B16 melanoma cells to the right abdomen of each of wild-type C57BL/6 mice. Preparation of the LLC tumor-bearing model was carried out in the same manner as in the above-described section 3. A feed supplemented with DSF was provided in the same manner as in the above-described section 3.
The day of the transplantation of the tumor cells to the mice was defined as Day 0. From Day 4, the mice were fed with the feed supplemented with DSF or a control feed every day during the experimental period. An anti-PD-1 antibody (J43, manufactured by BioXcell) was intraperitoneally administered once at a dose of 0.2 mg on each of Day 5, Day 8, Day 14, and Day 18 (four times in total). To provide a control for the antibody administration, PBS was intraperitoneally administered. The tumor size was measured using a caliper twice a week, and the tumor volume was calculated.

Data set [6] deals with T2, aldehyde dehydrogenase (ALDH) (Rattus norvegicus, UniProt P11884).
T2 sequence (P11884 20-519): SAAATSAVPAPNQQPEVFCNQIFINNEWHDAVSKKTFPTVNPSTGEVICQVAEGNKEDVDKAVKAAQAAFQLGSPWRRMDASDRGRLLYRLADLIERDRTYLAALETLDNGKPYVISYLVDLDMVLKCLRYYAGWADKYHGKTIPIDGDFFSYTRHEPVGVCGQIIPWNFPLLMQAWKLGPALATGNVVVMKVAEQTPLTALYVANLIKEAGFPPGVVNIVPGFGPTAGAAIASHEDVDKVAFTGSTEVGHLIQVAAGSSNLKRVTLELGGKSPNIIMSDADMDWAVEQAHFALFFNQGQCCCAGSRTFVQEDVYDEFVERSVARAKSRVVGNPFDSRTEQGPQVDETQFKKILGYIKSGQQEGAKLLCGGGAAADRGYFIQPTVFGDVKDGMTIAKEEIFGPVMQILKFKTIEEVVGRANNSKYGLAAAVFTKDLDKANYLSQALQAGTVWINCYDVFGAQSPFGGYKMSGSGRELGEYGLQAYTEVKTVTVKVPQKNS
The conditions noted are these: Excerpt from Alcohol Clin Exp Res 1996.20.595-; read-out: ALDH inhibition; cited from earlier work.

Take `CCN(CC)C(=S)SSC(=S)N(CC)CC` [DSF, disulfiram]: the “inhibitory action against FROUNT-CCR2 relative to p53-MDM2” value in data set [1] is listed as “about 100 times”. In addition, the “inhibition of FROUNT-CCR2 interaction” value in data set [1] (HTRF, result in words) is “selectively inhibited”. The IC50 was 0.042 µM in data set [1] (HTRF, read-out: FROUNT inhibition (IC50 against FROUNT-CCR2)) and 7.4 µM in data set [6]. For the same compound, the “cytotoxic activity on LLC tumor cells” value in data set [2] is given as “did not show cytotoxic activity”. Besides, the “cytotoxic activity on B16F10 melanoma cells” value in data set [3] is listed as “did not show any action”. Besides, the “accumulation of macrophages in tumor sites” value in data set [4] is given as “reduced”. Also, the “hyperplasia of cancer cells (tumor volume)” value in data set [5] is “inhibited”.
